Values quoted from earlier work in US20250312313A1, “PHARMACEUTICAL COMPOSITION FOR SUBLINGUAL ADMINISTRATION OF CLONIDINE” (NOVUMGEN LIMITED, priority 2022, published 2025).

Details: oral

Question: With `Clc1cccc(Cl)c1N=C1NCCN1` [Clonidine] as the compound, how does the “absorption from the gastrointestinal tract” value read?
Answer: almost completely absorbed
